Results on one molecule are retold here after US11266642B2, “Small molecule inhibitors of HLA-DR3 binding for treating autoimmune thyroiditis” (ICAHN SCHOOL OF MEDICINE AT MOUNT SINAI, priority 2015, dated 2022).

The test has as its target T1, HLA-DRβ1-Arg74 (Homo sapiens, UniProt P01903+P01911, A100K/A102G/A103R/A169T/F55Y/I96L/K41T/L162R/M171V/P40S/Q125H/Q178H/Q39Y/R42S/S66N/T106N/W38E/Y61H).
T1 construct: extracellular portion of the DRB1*0301 β chain fused to the coiled coil region; coiled coil region of the basic leucine zipper domain of JunB; TEV protease cutting site (internal)
The experiment in a line: In Vitro Arg74 Blocking Test (DELFIA immunoassay, APO peptide binding). To be noted: 10 μM biotinylated APO; 48 h at 37° C.; serial dilution 0.2 to 0.0125 mM; read-out: approximate IC50, inhibition of APO binding to HLA-DRβ1-Arg74. The source says:
HLA-DRβ1-Arg74 protein (containing arginine at position 74 on the β chain) was produced using the baculovirus system. We designed 2 constructs for both the α and β chains of HLA-DR. The β-chain construct contained the extracellular portion of the DRB1*0301 β chain fused to the coiled coil region of the basic Leucine zipper domain of JunB, and the α chain construct contained the extracellular portion of the DR α chain fused to the coiled coil region to the basic Leucine zipper domain of Fos. A TEV protease cutting site was introduced in each chain to allow removal of the dimerization motif. The JunB and Fos dimerization motifs allowed the protein to dimerize and form the final HLA-DRβ1-Arg74 protein. […]
Test compounds were dissolved in 100% DMSO and tested for their ability to bind to the HLA-DRβ1-Arg74 pocket and block it from binding the peptide using an immunoassay we developed for this purpose, which will be referred to as the “In Vitro Arg74 Blocking Test”. […] Time-resolved fluorescence was measured using the BMG reader (BMG Labtech, Cary, N.C.). […] Percent inhibition was calculated by the following formula: 100−100×[HLA-DRβ1-Arg74-APO-small molecule/HLA-DRβ1-Arg74-APO (no small molecule)])
To gauge the potency of the small molecules we determined the percent inhibition at decreasing concentrations of test molecules. […]

T1 sequence (P01903 26-216 limits assumed, other chains not shown): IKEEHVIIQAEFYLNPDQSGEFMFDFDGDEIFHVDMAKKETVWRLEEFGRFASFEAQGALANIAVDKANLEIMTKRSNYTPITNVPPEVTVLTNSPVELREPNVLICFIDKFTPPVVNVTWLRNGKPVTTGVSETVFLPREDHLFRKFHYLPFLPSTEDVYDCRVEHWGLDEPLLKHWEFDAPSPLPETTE

A word on the IC50: it is the concentration at which inhibition is half-maximal. Turning to `COc1ccc2cc1Oc1ccc(cc1)C[C@H]1c3c(cc4c(c3Oc3cc5c(cc3OC)CCN(C)[C@@H]5C2)OCO4)CCN1C` [Compound Ia, cepharanthine], the IC50 was approximately 80 µM.
